Laboratory results taken from ChEMBL document CHEMBL1201862, “PubChem BioAssay data set” (2004).
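Tested at 5 concentrations; 48 h exposure; 96-well plates; endpoints linearly interpolated, else capped at highest concentration. GI50 = concentration required for 50% inhibition of growth.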 Activity calls are given as the source filed them. Cut-off read from the data, not from the text of the source: active = GI50 up to about 1.1 µM and inactive = higher.

Key:
Assay in all cases: growth of human tumour cells (NCI), 48 h
T47D = test system: T47D
EKVX = test system: EKVX
MDA-MB-435 = test system: MDA-MB-435
M14 = test system: M14
HL-60 = test system: HL-60
HOP-62 = test system: HOP-62
CCRF-CEM = test system: CCRF-CEM
Malme-3M = test system: Malme-3M
HT-29 = test system: HT-29
A549 = test system: A549
RXF 393 = test system: RXF 393
UACC-257 = test system: UACC-257
NCI-H226 = test system: NCI-H226
IGROV-1 = test system: IGROV-1
A498 = test system: A498
MOLT-4 = test system: MOLT-4
SK-MEL-2 = test system: SK-MEL-2
NCI-H522 = test system: NCI-H522
Hs-578T = test system: Hs-578T
SNB-75 = test system: SNB-75

Compound	GI50 (T47D)	GI50 (EKVX)	GI50 (MDA-MB-435)	GI50 (M14)	GI50 (HL-60)	GI50 (HOP-62)	GI50 (CCRF-CEM)	GI50 (Malme-3M)	GI50 (HT-29)	GI50 (A549)	GI50 (RXF 393)	GI50 (UACC-257)	GI50 (NCI-H226)	GI50 (IGROV-1)	GI50 (A498)	GI50 (MOLT-4)	GI50 (SK-MEL-2)	GI50 (NCI-H522)	GI50 (Hs-578T)	GI50 (SNB-75)
COc1ccc2c(c1)C(=O)C(=O)c1cc(O)c(OC)c(OC)c1-2	1.13 µM (inactive)	0.979 µM (active)	0.115 µM (active)	0.933 µM (active)	0.104 µM (active)	0.845 µM (active)	0.791 µM (active)	0.832 µM (active)	1.32 µM (inactive)	2.73 µM (inactive)	0.9 µM (active)	0.91 µM (active)	5.64 µM (inactive)	0.791 µM (active)	4.48 µM (inactive)	0.114 µM (active)	0.861 µM (active)	0.927 µM (active)	1.07 µM (active)	1.18 µM (inactive)
COC1=CCC2=C(CCN(C(=O)C3CCC3)C2Cc2ccc(OC)c(O)c2)C1 (stereo not given)	19.4 µM (inactive)	25.7 µM (inactive)	3.09 µM (inactive)	16.9 µM (inactive)	4.3 µM (inactive)	14.3 µM (inactive)	21.8 µM (inactive)	26.6 µM (inactive)	20.3 µM (inactive)	31.6 µM (inactive)	4.68 µM (inactive)	17.3 µM (inactive)	49.1 µM (inactive)	26.8 µM (inactive)	19.4 µM (inactive)	12.7 µM (inactive)	24.2 µM (inactive)	16.6 µM (inactive)	14.6 µM (inactive)	10.7 µM (inactive)
N=C(N)N/N=C/c1c(-c2ccc(Cl)cc2)nc2n1CCS2	13.6 µM (inactive)	16.6 µM (inactive)	11.9 µM (inactive)	2.94 µM (inactive)	31.1 µM (inactive)	12.6 µM (inactive)	2.43 µM (inactive)	14.6 µM (inactive)	8.87 µM (inactive)	10 µM (inactive)	9.29 µM (inactive)	14.3 µM (inactive)	20.1 µM (inactive)	13.9 µM (inactive)	12.7 µM (inactive)	2.68 µM (inactive)	10.8 µM (inactive)	12.8 µM (inactive)	24.3 µM (inactive)	13.3 µM (inactive)
CN(C)/C=N/S(=O)(=O)c1nn2c(C=O)c(-c3ccc([N+](=O)[O-])cc3)nc2s1	5.68 µM (inactive)	16.6 µM (inactive)	6.3 µM (inactive)	2.79 µM (inactive)	1.38 µM (inactive)	26.1 µM (inactive)	0.834 µM (active)	2.23 µM (inactive)	1.54 µM (inactive)	22.8 µM (inactive)	5.62 µM (inactive)	9.44 µM (inactive)	19.6 µM (inactive)	3.15 µM (inactive)	27.6 µM (inactive)	2.35 µM (inactive)	10.4 µM (inactive)	1.27 µM (inactive)	24.5 µM (inactive)	23.6 µM (inactive)
O=C(O)C1CSC2(CCCN(Cc3ccccc3)C2)N1 (stereo not given)	> 100 µM (inactive)	> 100 µM (inactive)	> 76.7 µM (inactive)	> 100 µM (inactive)	> 100 µM (inactive)	> 100 µM (inactive)	23.4 µM (inactive)	> 100 µM (inactive)	> 100 µM (inactive)	> 100 µM (inactive)	> 100 µM (inactive)	> 100 µM (inactive)	> 100 µM (inactive)	> 100 µM (inactive)	> 100 µM (inactive)	> 20.7 µM (inactive)	> 100 µM (inactive)	> 100 µM (inactive)	> 100 µM (inactive)	> 100 µM (inactive)
c1ccc2c(c1)N[C@@H]1c3[nH]c4ccccc4c3CC[C@H]21	16.7 µM (inactive)	13.5 µM (inactive)	17.3 µM (inactive)	13.5 µM (inactive)	16.1 µM (inactive)	13.3 µM (inactive)	15 µM (inactive)	5.13 µM (inactive)	15.6 µM (inactive)	18.3 µM (inactive)	17.9 µM (inactive)	26.9 µM (inactive)	12.5 µM (inactive)	3.95 µM (inactive)	16.7 µM (inactive)	13.9 µM (inactive)	13.9 µM (inactive)	11.6 µM (inactive)	10.2 µM (inactive)	1.3 µM (inactive)
O=C(O)Cc1cccc2c(=O)cc(-c3ccccc3)oc12 [MITOFLAXONE]	> 250 µM (inactive)	242 µM (inactive)	> 250 µM (inactive)	> 250 µM (inactive)	> 250 µM (inactive)	243 µM (inactive)	213 µM (inactive)	> 250 µM (inactive)	> 250 µM (inactive)	245 µM (inactive)	244 µM (inactive)	> 250 µM (inactive)	237 µM (inactive)	> 250 µM (inactive)	226 µM (inactive)	> 209 µM (inactive)	153 µM (inactive)	228 µM (inactive)	149 µM (inactive)	212 µM (inactive)
CC1(C)Cc2nc3c(cc2C(=O)C1/C=N/C(C#N)=C(\N)C#N)C(=O)C(/C=N/C(C#N)=C(\N)C#N)C(C)(C)C3 (stereo not given)	1.32 µM (inactive)	2.03 µM (inactive)	2.08 µM (inactive)	1.67 µM (inactive)	2.04 µM (inactive)	2.33 µM (inactive)	2.39 µM (inactive)	1.52 µM (inactive)	2.54 µM (inactive)	2.6 µM (inactive)	1.68 µM (inactive)	2.51 µM (inactive)	2.84 µM (inactive)	1.52 µM (inactive)	4.17 µM (inactive)	2.37 µM (inactive)	2.2 µM (inactive)	0.705 µM (active)	0.916 µM (active)	1.66 µM (inactive)
NC(=O)NO [HYDROXYUREA]	1490 µM (inactive)	1790 µM (inactive)	2000 µM (inactive)	597 µM (inactive)	18.4 µM (inactive)	904 µM (inactive)	50.4 µM (inactive)	1170 µM (inactive)	605 µM (inactive)	514 µM (inactive)	857 µM (inactive)	1810 µM (inactive)	773 µM (inactive)	1110 µM (inactive)	693 µM (inactive)	222 µM (inactive)	2000 µM (inactive)	729 µM (inactive)	740 µM (inactive)	817 µM (inactive)
NC(=S)N/N=C1\CCCCC1C(O)(C(F)(F)Cl)C(F)(F)Cl (stereo not given)	> 10 µM (inactive)	> 10 µM (inactive)	> 10 µM (inactive)	> 10 µM (inactive)	> 10 µM (inactive)	> 10 µM (inactive)	> 10 µM (inactive)	> 10 µM (inactive)	> 10 µM (inactive)	> 10 µM (inactive)	> 10 µM (inactive)	> 10 µM (inactive)	> 10 µM (inactive)	> 10 µM (inactive)	> 10 µM (inactive)	> 10 µM (inactive)	> 10 µM (inactive)	> 10 µM (inactive)	> 10 µM (inactive)	> 10 µM (inactive)
C=CC/C=C/Cc1csc(C(C)(C)C(O)C/C=C/C(=C)CCNC(=O)OC)n1 (stereo not given)	> 100 µM (inactive)	27.9 µM (inactive)	49.7 µM (inactive)	43.5 µM (inactive)	9.71 µM (inactive)	> 100 µM (inactive)	34.9 µM (inactive)	> 91.8 µM (inactive)	48.8 µM (inactive)	41.4 µM (inactive)	> 63.4 µM (inactive)	1.49 µM (inactive)	> 100 µM (inactive)	28.4 µM (inactive)	> 60.5 µM (inactive)	36.1 µM (inactive)	> 100 µM (inactive)	19.1 µM (inactive)	> 100 µM (inactive)	43 µM (inactive)
COc1cc2c(cc1OCCCCOc1cc(-c3ccc(F)cc3)nc(C)n1)N=C[C@@H]1CCCN1C2=O	0.294 µM (active)	1.66 µM (inactive)	0.652 µM (active)	0.678 µM (active)	0.279 µM (active)	0.451 µM (active)	0.135 µM (active)	0.82 µM (active)	0.442 µM (active)	1.15 µM (inactive)	0.429 µM (active)	0.692 µM (active)	1.05 µM (active)	0.731 µM (active)	1.01 µM (active)	0.108 µM (active)	0.853 µM (active)	0.212 µM (active)	1.05 µM (active)	0.723 µM (active)
Cc1cccc(C)c1NC(=O)/C(Cl)=C(/Cl)C(=O)O	27.9 µM (inactive)	19.5 µM (inactive)	21.9 µM (inactive)	9.29 µM (inactive)	2.63 µM (inactive)	> 62.2 µM (inactive)	2.95 µM (inactive)	14.7 µM (inactive)	17.5 µM (inactive)	20.7 µM (inactive)	18.8 µM (inactive)	16.1 µM (inactive)	16.4 µM (inactive)	20.8 µM (inactive)	33.5 µM (inactive)	3.99 µM (inactive)	16.7 µM (inactive)	4.33 µM (inactive)	33.3 µM (inactive)	20.2 µM (inactive)
CC(C#N)(c1ccccc1)N(CCc1ccccc1)C(=O)Oc1ccccc1 (stereo not given)	> 100 µM (inactive)	> 100 µM (inactive)	> 100 µM (inactive)	> 100 µM (inactive)	> 100 µM (inactive)	50.2 µM (inactive)	> 100 µM (inactive)	> 100 µM (inactive)	> 100 µM (inactive)	> 100 µM (inactive)	26.7 µM (inactive)	> 100 µM (inactive)	38.5 µM (inactive)	> 100 µM (inactive)	> 100 µM (inactive)	> 100 µM (inactive)	> 100 µM (inactive)	> 100 µM (inactive)	35.5 µM (inactive)	25.9 µM (inactive)
